Test: Appearance of formulation (state at 25° C.)
Assay type: physicochemical
Conditions: Tables 1C-1 to 1D; compounding molar ratio (Component (A):Component (B)) 1:1
Procedure: Formulations 1 to 427 shown in Tables 1A to 1D were prepared by the above-described method using the components (A) and (B) at the compounding molar ratios shown in the tables, and their states at 25° C. were observed.

For `N[C@@H](CS)C(=O)O.O=C(O)/C=C/C(=O)O` [Formulation 316], the “state at 25° C.” value was “Solid”.
For `N[C@@H](CS)C(=O)O.O=C(O)C[C@H](O)C(=O)O` [Formulation 317], the “state at 25° C.” value was “Solid”.
For `N[C@@H](CS)C(=O)O.O=C(O)CC(O)(CC(=O)O)C(=O)O` [Formulation 318], the “state at 25° C.” value was “Solid”.
In the case of `N[C@@H](CS)C(=O)O.O=C(O)C(O)C(O)C(=O)O` (stereo not drawn) [Formulation 319], the “state at 25° C.” value is reported as “Solic”.
In the case of `N[C@@H](CS)C(=O)O.O=C(O)c1ccccc1` [Formulation 320], the “state at 25° C.” value is reported as “Solid”.
With `N[C@@H](CS)C(=O)O.O=C1O[C@H]([C@@H](O)CO)C(O)=C1O` [Formulation 321] the “state at 25° C.” value was “Solid”.
For `N[C@@H](CS)C(=O)O.O=C1O[C@H]([C@H](O)CO)C(O)=C1O` [Formulation 322], the “state at 25° C.” value was “Solid”.
For `CSCC[C@H](N)C(=O)O.O=CO` [Formulation 323], the “state at 25° C.” value was “Solid”.
With `CC(=O)O.CSCC[C@H](N)C(=O)O` [Formulation 324] the “state at 25° C.” value was “Solid”.
With `CCC(=O)O.CSCC[C@H](N)C(=O)O` [Formulation 325] the “state at 25° C.” value was “Solid”.
In the case of `CCCCCC(=O)O.CSCC[C@H](N)C(=O)O` [Formulation 326], the “state at 25° C.” value is reported as “Solid”.
For `CCCC(=O)O.CSCC[C@H](N)C(=O)O` [Formulation 327], the “state at 25° C.” value was “Solid”.
For `CSCC[C@H](N)C(=O)O.O=C(O)[C@H](O)[C@@H](O)[C@H](O)[C@H](O)CO` [Formulation 328], the “state at 25° C.” value was “Solid”.
For `CC(O)C(=O)O.CSCC[C@H](N)C(=O)O` [Formulation 329], the “state at 25° C.” value was “Solid”.
With `CSCC[C@H](N)C(=O)O.O=C(O)CCCCC(=O)O` [Formulation 330] the “state at 25° C.” value was “Solid”.
For `CSCC[C@H](N)C(=O)O.O=C(O)CCC(=O)O` [Formulation 331], the “state at 25° C.” value was “Solid”.
With `CSCC[C@H](N)C(=O)O.N[C@@H](CCC(=O)O)C(=O)O` [Formulation 332] the “state at 25° C.” value was “Solid”.
For `CSCC[C@H](N)C(=O)O.O=C(O)/C=C/C(=O)O` [Formulation 333], the “state at 25° C.” value was “Solid”.
With `CSCC[C@H](N)C(=O)O.O=C(O)C[C@H](O)C(=O)O` [Formulation 334] the “state at 25° C.” value was “Solid”.
For `CSCC[C@H](N)C(=O)O.O=C(O)CC(O)(CC(=O)O)C(=O)O` [Formulation 335], the “state at 25° C.” value was “Solid”.
With `CSCC[C@H](N)C(=O)O.O=C(O)C(O)C(O)C(=O)O` (stereo not drawn) [Formulation 336] the “state at 25° C.” value was “Solid”.
In the case of `CSCC[C@H](N)C(=O)O.O=C(O)c1ccccc1` [Formulation 337], the “state at 25° C.” value is reported as “Solid”.
In the case of `CSCC[C@H](N)C(=O)O.O=C1O[C@H]([C@@H](O)CO)C(O)=C1O` [Formulation 338], the “state at 25° C.” value is reported as “Solid”.
For `CSCC[C@H](N)C(=O)O.O=C1O[C@H]([C@H](O)CO)C(O)=C1O` [Formulation 339], the “state at 25° C.” value was “Solid”.
In the case of `O=C(O)[C@@H]1CCCN1.O=CO` [Formulation 340], the “state at 25° C.” value is reported as “Solid”.
For `CCC(=O)O.O=C(O)[C@@H]1CCCN1` [Formulation 342], the “state at 25° C.” value was “Solid”.
For `CCCCCC(=O)O.O=C(O)[C@@H]1CCCN1` [Formulation 343], the “state at 25° C.” value was “Salid”.
For `CCCC(=O)O.O=C(O)[C@@H]1CCCN1` [Formulation 344], the “state at 25° C.” value was “Solid”.
For `O=C(O)CCCCC(=O)O.O=C(O)[C@@H]1CCCN1` [Formulation 350], the “state at 25° C.” value was “Solid”.
In the case of `O=C(O)CCC(=O)O.O=C(O)[C@@H]1CCCN1` [Formulation 351], the “state at 25° C.” value is reported as “Solid”.
In the case of `N[C@@H](CCC(=O)O)C(=O)O.O=C(O)[C@@H]1CCCN1` [Formulation 352], the “state at 25° C.” value is reported as “Solid”.
With `O=C(O)/C=C/C(=O)O.O=C(O)[C@@H]1CCCN1` [Formulation 353] the “state at 25° C.” value was “Solid”.
For `O=C(O)C(O)C(O)C(=O)O.O=C(O)[C@@H]1CCCN1` (stereo not drawn) [Formulation 356], the “state at 25° C.” value was “Solid”.
In the case of `O=C(O)[C@@H]1CCCN1.O=C(O)c1ccccc1` [Formulation 357], the “state at 25° C.” value is reported as “Solid”.
For `N[C@@H](Cc1ccccc1)C(=O)O.O=CO` [Formulation 360], the “state at 25° C.” value was “Solid”.
For `CC(=O)O.N[C@@H](Cc1ccccc1)C(=O)O` [Formulation 361], the “state at 25° C.” value was “Solid”.
In the case of `CCC(=O)O.N[C@@H](Cc1ccccc1)C(=O)O` [Formulation 362], the “state at 25° C.” value is reported as “Solid”.
In the case of `CCCCCC(=O)O.N[C@@H](Cc1ccccc1)C(=O)O` [Formulation 363], the “state at 25° C.” value is reported as “Solid”.
In the case of `CCCC(=O)O.N[C@@H](Cc1ccccc1)C(=O)O` [Formulation 364], the “state at 25° C.” value is reported as “Solid”.
For `N[C@@H](Cc1ccccc1)C(=O)O.O=C(O)[C@H](O)[C@@H](O)[C@H](O)[C@H](O)CO` [Formulation 365], the “state at 25° C.” value was “Solid”.
For `CC(O)C(=O)O.N[C@@H](Cc1ccccc1)C(=O)O` [Formulation 366], the “state at 25° C.” value was “Solid”.
For `N[C@@H](Cc1ccccc1)C(=O)O.O=C(O)CCCCC(=O)O` [Formulation 367], the “state at 25° C.” value was “Solid”.
With `N[C@@H](Cc1ccccc1)C(=O)O.O=C(O)CCC(=O)O` [Formulation 368] the “state at 25° C.” value was “Solid”.
In the case of `N[C@@H](CCC(=O)O)C(=O)O.N[C@@H](Cc1ccccc1)C(=O)O` [Formulation 369], the “state at 25° C.” value is reported as “Solid”.
With `N[C@@H](Cc1ccccc1)C(=O)O.O=C(O)/C=C/C(=O)O` [Formulation 370] the “state at 25° C.” value was “Solid”.
In the case of `N[C@@H](Cc1ccccc1)C(=O)O.O=C(O)C[C@H](O)C(=O)O` [Formulation 371], the “state at 25° C.” value is reported as “Salid”.
In the case of `N[C@@H](Cc1ccccc1)C(=O)O.O=C(O)CC(O)(CC(=O)O)C(=O)O` [Formulation 372], the “state at 25° C.” value is reported as “Solid”.
In the case of `N[C@@H](Cc1ccccc1)C(=O)O.O=C(O)C(O)C(O)C(=O)O` [Formulation 373], the “state at 25° C.” value is reported as “Solid”.
For `N[C@@H](Cc1ccccc1)C(=O)O.O=C(O)c1ccccc1` [Formulation 374], the “state at 25° C.” value was “Solid”.
With `N[C@@H](Cc1ccccc1)C(=O)O.O=C1O[C@H]([C@H](O)CO)C(O)=C1O` [Formulation 375] the “state at 25° C.” value was “Solid”.
In the case of `N[C@@H](Cc1c[nH]c2ccccc12)C(=O)O.O=CO` [Formulation 377], the “state at 25° C.” value is reported as “Solid”.
For `CC(=O)O.N[C@@H](Cc1c[nH]c2ccccc12)C(=O)O` [Formulation 378], the “state at 25° C.” value was “Solid”.
For `CCC(=O)O.N[C@@H](Cc1c[nH]c2ccccc12)C(=O)O` [Formulation 379], the “state at 25° C.” value was “Solid”.
For `CCCCCC(=O)O.N[C@@H](Cc1c[nH]c2ccccc12)C(=O)O` [Formulation 380], the “state at 25° C.” value was “Solid”.
In the case of `CCCC(=O)O.N[C@@H](Cc1c[nH]c2ccccc12)C(=O)O` [Formulation 381], the “state at 25° C.” value is reported as “Solid”.
With `N[C@@H](Cc1c[nH]c2ccccc12)C(=O)O.O=C(O)[C@H](O)[C@@H](O)[C@H](O)[C@H](O)CO` [Formulation 382] the “state at 25° C.” value was “Solid”.
In the case of `CC(O)C(=O)O.N[C@@H](Cc1c[nH]c2ccccc12)C(=O)O` [Formulation 383], the “state at 25° C.” value is reported as “Solid”.
For `N[C@@H](Cc1c[nH]c2ccccc12)C(=O)O.O=C(O)CCCCC(=O)O` [Formulation 384], the “state at 25° C.” value was “Solid”.
In the case of `N[C@@H](Cc1c[nH]c2ccccc12)C(=O)O.O=C(O)CCC(=O)O` [Formulation 385], the “state at 25° C.” value is reported as “Solid”.
In the case of `N[C@@H](CCC(=O)O)C(=O)O.N[C@@H](Cc1c[nH]c2ccccc12)C(=O)O` [Formulation 386], the “state at 25° C.” value is reported as “Solid”.
In the case of `N[C@@H](Cc1c[nH]c2ccccc12)C(=O)O.O=C(O)/C=C/C(=O)O` [Formulation 387], the “state at 25° C.” value is reported as “Solid”.
With `N[C@@H](Cc1c[nH]c2ccccc12)C(=O)O.O=C(O)C[C@H](O)C(=O)O` [Formulation 388] the “state at 25° C.” value was “Solid”.
With `N[C@@H](Cc1c[nH]c2ccccc12)C(=O)O.O=C(O)CC(O)(CC(=O)O)C(=O)O` [Formulation 389] the “state at 25° C.” value was “Solid”.
In the case of `N[C@@H](Cc1c[nH]c2ccccc12)C(=O)O.O=C(O)C(O)C(O)C(=O)O` [Formulation 390], the “state at 25° C.” value is reported as “Solid”.
With `N[C@@H](Cc1c[nH]c2ccccc12)C(=O)O.O=C(O)c1ccccc1` [Formulation 391] the “state at 25° C.” value was “Solid”.
In the case of `N[C@@H](Cc1c[nH]c2ccccc12)C(=O)O.O=C1O[C@H]([C@@H](O)CO)C(O)=C1O` [Formulation 392], the “state at 25° C.” value is reported as “Solid”.
With `N[C@@H](Cc1c[nH]c2ccccc12)C(=O)O.O=C1O[C@H]([C@H](O)CO)C(O)=C1O` [Formulation 393] the “state at 25° C.” value was “Solid”.
With `N[C@@H](CC(=O)O)C(=O)O.O=CO` [Formulation 394] the “state at 25° C.” value was “Solid”.
For `CC(=O)O.N[C@@H](CC(=O)O)C(=O)O` [Formulation 395], the “state at 25° C.” value was “Solid”.
For `CCC(=O)O.N[C@@H](CC(=O)O)C(=O)O` [Formulation 396], the “state at 25° C.” value was “Solid”.
For `CCCCCC(=O)O.N[C@@H](CC(=O)O)C(=O)O` [Formulation 397], the “state at 25° C.” value was “Solid”.
With `CCCC(=O)O.N[C@@H](CC(=O)O)C(=O)O` [Formulation 398] the “state at 25° C.” value was “Solid”.
For `N[C@@H](CC(=O)O)C(=O)O.O=C(O)[C@H](O)[C@@H](O)[C@H](O)[C@H](O)CO` [Formulation 399], the “state at 25° C.” value was “Solid”.
For `CC(O)C(=O)O.N[C@@H](CC(=O)O)C(=O)O` [Formulation 400], the “state at 25° C.” value was “Solid”.
For `N[C@@H](CC(=O)O)C(=O)O.O=C(O)CCCCC(=O)O` [Formulation 401], the “state at 25° C.” value was “Solid”.

From patent US20250186321A1, “FORMULATION USING AMINO ACID AND CARBOXYLIC ACID, ORGANIC SALT, AND COMPOSITION COMPRISING SAME AND USE THEREOF” (MIYOSHI OIL & FAT CO., LTD., priority 2021, published 2025)
